Data published in patent US10138225B2 (Achillion Pharmaceuticals, Inc., priority 2015, dated 2018).

Biological target: T1, Human Factor D (Homo sapiens, UniProt P00746)
T1 construct: purified from human serum; purchased Complement Technology, Inc; host or cells: human serum (natural protein, not recombinant)
Assay: Human Factor D Assay
Type: biochemical
Conditions: Table 1; Factor D 80 nM, substrate Z-L-Lys-SBzl; read-out: IC50
Method: Human Factor D (purified from human serum, Complement Technology, Inc.) at 80 nM final concentration is incubated with test compound at various concentrations for 5 minutes at room temperature in 50 mM Tris, 1M NaCl, pH 7.5. A synthetic substrate Z-L-Lys-SBzl and DTNB (Ellman's reagent) are added to final concentrations of 100 μM each. Absorbance at 405 nm (A405) is recorded at 30 second intervals for 30 minutes using a microplate spectrophotometer. IC50 values are calculated by nonlinear regression of complement Factor D reaction rates as a function of test compound concentration.

T1 sequence (P00746 26-253): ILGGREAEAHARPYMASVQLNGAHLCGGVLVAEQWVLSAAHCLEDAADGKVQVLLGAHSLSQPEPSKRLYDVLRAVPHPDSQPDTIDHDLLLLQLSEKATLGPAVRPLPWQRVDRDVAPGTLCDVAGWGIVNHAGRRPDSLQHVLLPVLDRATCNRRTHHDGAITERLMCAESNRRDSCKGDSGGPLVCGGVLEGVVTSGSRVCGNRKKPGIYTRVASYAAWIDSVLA

| Structure (SMILES) | IC50 |
| --- | --- |
| NC(=O)c1nn(CC(=O)N2C[C@H](F)C[C@H]2C(=O)Nc2cccc(OC(F)(F)F)c2F)c2ccc(NC(=O)Nc3ccon3)cc12 [Compound 25, 1-(2-((2S,4R)-4-fluoro-2-(2-fluoro-3-(trifluoromethoxy)phenylcarbamoyl)pyrrolidin-1-yl)-2-oxoethyl)-5-(3-isoxazol-3-ylureido)-1H-indazole-3-carboxamide] | < 1000 nM |
| NC(=O)c1nn(CC(=O)N2C[C@H](F)C[C@H]2C(=O)Nc2cccc(OC(F)(F)F)c2F)c2ccc(NC(=O)N3CCCC(F)(F)C3)cc12 [Compound 26] | < 1000 nM |
| NC(=O)c1nn(CC(=O)N2[C@@H]3C[C@@H]3C[C@H]2C(=O)Nc2cccc(OC(F)(F)F)c2F)c2ccc(NC(=O)N3CCCC(F)(F)C3)cc12 [Compound 27, 5-(3,3-difluoropiperidine-1-carboxamido)-1-(2-((1R,3S,5R)-3-(2-fluoro-3-(trifluoromethoxy)phenylcarbamoyl)-2-azabicylco[3.1.0]hexan-2-yl)-2-oxoethyl)-1H-indazole-3-carboxamide] | < 1000 nM |
| NC(=O)c1nn(CC(=O)N2[C@@H]3C[C@@H]3C[C@H]2C(=O)Nc2cccc(-c3ccccc3Cl)c2F)c2ccc(NC(=O)N3CCCC(F)(F)C3)cc12 [Compound 28, 1-(2-((1R,3S,5R)-3-(2′-chloro-2-fluorobiphenyl-3-ylcarbamoyl)-2-azabicyclo[3.1.0]hexan-2-yl)-2-oxoethyl)-5-(3,3-difluoropiperidine-1-carboxamido)-1H-indazole-3-carboxamide] | < 1000 nM |
| NC(=O)c1nn(CC(=O)N2C[C@H](F)C[C@H]2C(=O)Nc2cccc(-c3ncccc3Cl)c2F)c2ccc(NC(=O)N3CCCC(F)(F)C3)cc12 [Compound 29, 1-(2-((2S,4R)-2-(3-(3-chloropyridin-2-yl)-2-fluorophenylcarbamoyl)-4-fluoropyrrolidin-1-yl)-2-oxoethyl)-5-(3,3-difluoropiperidine-1-carboxamido)-1H-indazole-3-carboxamide] | < 1000 nM |
| NC(=O)c1nn(CC(=O)N2C[C@H](F)C[C@H]2C(=O)Nc2cccc(-c3ccccc3Cl)c2F)c2ccc(NC(=O)N3CCC(F)(F)C3)cc12 [Compound 30, 1-(2-((2S,4R)-2-(2′-chloro-2-fluorobiphenyl-3-ylcarbamoyl)-4-fluoropyrrolidin-1-yl)-2-oxoethyl)-5-(3,3-difluoropyrrolidine-1-carboxamido)-1H-indazole-3-carboxamide] | < 1000 nM |
| NC(=O)c1nn(CC(=O)N2C[C@H](F)C[C@H]2C(=O)Nc2cccc(-c3ccccc3Cl)c2F)c2ccc(NC(=O)N3CCC(F)(F)CC3)cc12 [Compound 31, 1-(2-((2S,4R)-2-(2′-chloro-2-fluorobiphenyl-3-ylcarbamoyl)-4-fluoropyrrolidin-1-yl)-2-oxoethyl)-5-(4,4-difluoropiperidine-1-carboxamido)-1H-indazole-3-carboxamide] | < 1000 nM |
| NC(=O)c1nn(CC(=O)N2C[C@H](F)C[C@H]2C(=O)Nc2cccc(-c3ccccc3Cl)c2F)c2ccc(NC(=O)NCc3ncccn3)cc12 [Compound 32, 1-(2-((2S,4R)-2-(2′-chloro-2-fluorobiphenyl-3-ylcarbamoyl)-4-fluoropyrrolidin-1-yl)-2-oxoethyl)-5-(3-(pyrimidin-2-ylmethyl)ureido)-1H-indazole-3-carboxamide] | < 1000 nM |
| NC(=O)c1nn(CC(=O)N2C[C@H](F)C[C@H]2C(=O)Nc2cccc(Br)n2)c2ccc(NC(=O)N3CCCC(F)(F)C3)cc12 [Compound 33, 1-(2-((2S,4R)-2-(6-bromopyridin-2-ylcarbamoyl)-4-fluoropyrrolidin-1-yl)-2-oxoethyl)-5-(3,3-difluoropiperidine-1-carboxamido)-1H-indazole-3-carboxamide] | < 1000 nM |
| NC(=O)c1nn(CC(=O)N2[C@@H]3C[C@@H]3C[C@H]2C(=O)Nc2cccc(Br)n2)c2ccc(NC(=O)N3CCCC(F)(F)C3)cc12 [Compound 34, 1-(2-((1R,3S,5R)-3-(6-bromopyridin-2-ylcarbamoyl)-2-azabicylco[3.1.0]hexan-2-yl)-2-oxoethyl)-5-(3,3-difluoropiperidine-1-carboxamido)-1H-indazole-3-carboxamide] | < 1000 nM |
| CC(=O)c1cn(CC(=O)N2C[C@H](F)C[C@H]2C(=O)Nc2cccc(-c3ccccc3Cl)c2F)c2ccc(NC(=O)C3CCC(F)(F)C3)cc12 (stereo partly drawn) [Compound 35, (2S,4R)-1-(2-(3-acetyl-5-(3,3-difluorocyclopentane-carboxamido)-1H-indol-1-yl)acetyl)-N-(2′-chloro-2-fluorobiphenyl-3-yl)-4-fluoropyrrolidine-2-carboxamide] | < 1000 nM |
| CC(=O)c1cn(CC(=O)N2C[C@H](F)C[C@H]2C(=O)Nc2cccc(-c3ccccc3Cl)c2F)c2ccc(NC(=O)CC(F)(F)F)cc12 [Compound 36, (2S,4R)-1-(2-(3-acetyl-5-(3,3,3-trifluoropropanamido)-1H-indol-1-yl)acetyl)-N-(2′-chloro-2-fluorobiphenyl-3-yl)-4-fluoropyrrolidine-2-carboxamide] | < 1000 nM |
| CC(=O)c1cn(CC(=O)N2C[C@H](F)C[C@H]2C(=O)NCc2cccc(Cl)c2F)c2cc(NC(=O)OC(C)(C)C)ccc12 [Compound 37, tert-butyl 3-acetyl-1-(2-((2S,4R)-2-(3-chloro-2-fluorobenzylcarbamoyl)-4-fluoropyrrolidin-1-yl)-2-oxoethyl)-1H-indol-6-ylcarbamate] | < 1000 nM |
| CC(=O)c1cn(CC(=O)N2C[C@H](F)C[C@H]2C(=O)NCc2cccc(Cl)c2F)c2ccc(C(=O)N3CC=C(B(O)O)CC3)cc12 [Compound 38, 1-(3-acetyl-1-(2-((2S,4R)-2-(3-chloro-2-fluorobenzylcarbamoyl)-4-fluoropyrrolidin-1-yl)-2-oxoethyl)-1H-indole-5-carbonyl)-1,2,3,6-tetrahydropyridin-4-ylboronic acid] | < 1000 nM |
| CC(=O)c1cn(CC(=O)N2C[C@H](F)C[C@H]2C(=O)NCc2cccc(Cl)c2F)c2ccc(C(=O)N3CC4CCC3C4)cc12 (stereo partly drawn) [Compound 39, (2S,4R)-1-(2-(3-acetyl-5-(2-azabicyclo[2.2.1]heptane-2-carbonyl)-1H-indol-1-yl)acetyl)-N-(3-chloro-2-fluorobenzyl)-4-fluoropyrrolidine-2-carboxamide] | < 1000 nM |
| CC(=O)c1cn(CC(=O)N2C[C@H](F)C[C@H]2C(=O)NCc2cccc(Cl)c2F)c2ccc(C(=O)N3CCCC(F)(F)C3)cc12 [Compound 40, (2S,4R)-1-(2-(3-acetyl-5-(3,3-difluoropiperidine-1-carbonyl)-1H-indol-1-yl)acetyl)-N-(3-chloro-2-fluorobenzyl)-4-fluoropyrrolidine-2-carboxamide] | < 1000 nM |
| CC(=O)c1cn(CC(=O)N2C[C@H](F)C[C@H]2C(=O)NCc2cccc(Cl)c2F)c2ccc(C(=O)NC3CC3)cc12 [Compound 41, 3-acetyl-1-(2-((2S,4R)-2-(3-chloro-2-fluorobenzylcarbamoyl)-4-fluoropyrrolidin-1-yl)-2-oxoethyl)-N-cyclopropyl-1H-indole-5-carboxamide] | < 1000 nM |
| CC(=O)c1cn(CC(=O)N2C[C@H](F)C[C@H]2C(=O)NCc2cccc(Cl)c2F)c2cc(C(=O)N3CCC(CN)C3)ccc12 (stereo partly drawn) [Compound 42, (2S,4R)-1-(2-(3-acetyl-6-(3-(aminomethyl)-pyrrolidine-1-carbonyl)-1H-indol-1-yl)acetyl)-N-(3-chloro-2-fluorobenzyl)-4-fluoropyrrolidine-2-carboxamide] | < 1000 nM |
| CC(=O)c1cn(CC(=O)N2C[C@H](F)C[C@H]2C(=O)NCc2cccc(Cl)c2F)c2cc(C(=O)NS(C)(=O)=O)ccc12 [Compound 43] | < 1000 nM |
| CC(=O)c1cn(CC(=O)N2C[C@H](F)C[C@H]2C(=O)NCc2cccc(Cl)c2F)c2cc(C(=O)N[C@H]3CCN(C(=O)OC(C)(C)C)C3)ccc12 [Compound 44, (S)-tert-butyl 3-(3-acetyl-1-(2-((2S,4R)-2-(3-chloro-2-fluorobenzyl-carbamoyl)-4-fluoropyrrolidin-1-yl)-2-oxoethyl)-1H-indole-6-carboxamido) pyrrolidine-1-carboxylate] | < 1000 nM |
| CC(=O)c1cn(CC(=O)N2C[C@H](F)C[C@H]2C(=O)NCc2cccc(Cl)c2F)c2cc(C(=O)N[C@H]3CCNC3)ccc12 [Compound 45, 3-acetyl-1-(2-((2S,4R)-2-(3-chloro-2-fluorobenzyl-carbamoyl)-4-fluoropyrrolidin-1-yl)-2-oxoethyl)-N-((S)-pyrrolidin-3-yl)-1H-indole-6-carboxamide] | < 1000 nM |
| CC(=O)c1cn(CC(=O)N2C[C@H](F)C[C@H]2C(=O)NCc2cccc(Cl)c2F)c2cc(C(=O)N[C@H]3CCN(C(C)=O)C3)ccc12 [Compound 46, 3-acetyl-N-((S)-1-acetylpyrrolidin-3-yl)-1-(2-((2S,4R)-2-(3-chloro-2-fluorobenzylcarbamoyl)-4-fluoropyrrolidin-1-yl)-2-oxoethyl)-1H-indole-6-carboxamide] | < 1000 nM |
| CC(=O)c1cn(CC(=O)N2C[C@H](F)C[C@H]2C(=O)NCc2cccc(Cl)c2F)c2cc(C(=O)NS(=O)(=O)C3CC3)ccc12 [Compound 48, 3-acetyl-1-(2-((2S,4R)-2-(3-chloro-2-fluorobenzylcarbamoyl)-4-fluoropyrrolidin-1-yl)-2-oxoethyl)-N-(cyclopropylsulfonyl)-1H-indole-6-carboxamide] | < 1000 nM |
| CC(=O)c1cn(CC(=O)N2C[C@H](F)C[C@H]2C(=O)NCc2cccc(Cl)c2F)c2cc(C(=O)NCC3CCNC3)ccc12 (stereo partly drawn) [Compound 49, 3-acetyl-1-(2-((2S,4R)-2-(3-chloro-2-fluorobenzylcarbamoyl)-4-fluoropyrrolildin-1-yl)-2-oxoethyl)-N-(pyrrolidin-3-ylmethyl)-1H-indole-6-carboxamide] | < 1000 nM |
